Test results from article PMC10487436, “Towards Anticancer and Antibacterial Agents: Design and Synthesis of 1,2,3-Triazol-quinobenzothiazine Derivatives” (International Journal of Molecular Sciences, 2023).

Key:
[1] = test system: SNB-19 (human glioblastoma); test: WST-1 proliferation assay, SNB-19; format: cell-based; conditions: Homo sapiens, SNB-19, 72 h exposure
Procedure: (§1) Compounds were evaluated for their antiproliferative activity using three cultured cell lines: A549 (human lung carcinoma, ATCC, Manassas, VA, USA), SNB-19 (human glioblastoma, DSMZ, German Collection of Microorganisms and Cell Cultures), T-47D (human breast cancer, ATCC, Manassas, VA, USA), and NHDF (normal human dermal fibroblasts, ATCC, Manassas, VA, USA). The cultured cells were kept at 37 °C and 5% CO2. The cells were seeded (1 × 10^4 cells/well/100 μL DMEM supplemented with 10% FCS, streptomycin, and penicillin) using 96-well plates (corning). Cells were counted in a hemocytometer (Burker chamber) using a phase contrast Olympus IX50 microscope equipped with a Sony SSC-DC58 AP camera and an Olympus DP10 digital camera.
(§2) The antiproliferative effect of the compounds exerted on cancer and normal cells was determined using the Cell Proliferation Reagent WST-1 assay (Roche Molecular Biochemicals, Mannheim, Germany). This assay is based on a colorimetric method using the enzymatic ability of viable cells to cause the bright, red-colored stable tetrazolium monosodium salt [2-(4-iodophenyl)-3-(4-nitrophenyl)-5-(2,4-disulfophenyl)–2H-tetra-zolium] to transform into the dark, red-colored soluble formazan. […] An increase in the amount of formazan dye formed correlated with the number of metabolically active cells in the culture. The formazan dye produced by metabolically active cells was quantified by absorbance readings at appropriate wavelengths. The examined cells were exposed to the tested compounds (1 mM DMSO stock) for 72 h at various concentrations (0.1–100 μM). The control was performed in order to eliminate the DMSO effect at the concentration used. Cell cultures were incubated with WST-1 (10 μL) for 1 h. The absorbance of the samples was measured against a background control at 450 nm using a microplate reader with a reference wavelength at 600 nm. The obtained results are expressed as the means of at least two independent experiments performed in triplicate. The antiproliferative activity of the tested compounds was compared to that of cisplatinum. The values of IC50 (a concentration of a compound that is required for 50% inhibition) were calculated from the dose-response relationship with respect to control. The results were reported as the mean (±std) of three separate experiments.

[2] = test system: Mycobacterium smegmatis ATCC 700084; test: MIC, broth dilution micro-method, MS; format: cell-based; conditions: Mycolicibacterium smegmatis, ATCC700084, 72 h; 3 days at 37 °C
[3] = test system: Mycobacterium marinum CAMP 5644; test: MIC, broth dilution micro-method, MM; format: cell-based; conditions: CAMP5644, 504 h, 21 days at 28 °C
[4] = test system: methicillin-resistant S. aureus 63718; test: MIC, microtitration broth method, MRSA3; format: cell-based; conditions: Staphylococcus aureus; 24 h at 37 °C
Procedure: (§3) In vitro antibacterial activity of the synthesized compounds was evaluated against representatives of multidrug-resistant bacteria, three clinical isolates of methicillin-resistant S. aureus: clinical isolates of animal origin, MRSA 63718 (Department of Infectious Diseases and Microbiology, Faculty of Veterinary Medicine, University of Veterinary Sciences Brno, Czech Republic), carrying the mecA gene; and MRSA SA 630 and MRSA SA 3202 [52] (National Institute of Public Health, Prague, Czech Republic), both of human origin. […] Vancomycin- and methicillin-susceptible S. aureus ATCC 29213 and vancomycin-susceptible Enterococcus faecalis ATCC 29212, obtained from the American Type Culture Collection, were used as the reference and quality control strains. Three vanA gene-carrying vancomycin-resistant isolates of E. faecalis (VRE 342B, VRE 368, VRE 725B) were provided by Oravcova et al..
(§4) The minimum inhibitory concentrations (MICs) were evaluated by the microtitration broth method according to the CLSI, with some modifications. The compounds were dissolved in DMSO (Sigma, St. Louis, MO, USA) to obtain a concentration of […] and diluted in a microtitration plate in an appropriate medium, i.e., Cation Adjusted Mueller–Hinton Broth (CaMH, Oxoid, Basingstoke, UK) for staphylococci, and Brain Heart Infusion Broth (BHI, Oxoid) for enterococci, to reach the final concentration of 256–0.125 µg/mL. Microtiter plates were inoculated with test micro-organisms so that the final concentration of bacterial cells was 10^5. […] A drug-free control and a sterility control were included. The plates were incubated for 24 h at 37 °C for staphylococci and enterococci. […] The experiments were repeated three times.

[5] = test system: methicillin-resistant S. aureus SA 3202; test: MIC, microtitration broth method, MRSA1; format: cell-based; conditions: Staphylococcus aureus; 24 h at 37 °C
Procedure: as §3, §4

[6] = test system: A549 (human lung carcinoma); test: WST-1 proliferation assay, A549; format: cell-based; conditions: Homo sapiens, A549, 72 h exposure
Procedure: as §1, §2

[7] = test system: methicillin-resistant S. aureus SA 630; test: MIC, microtitration broth method, MRSA2; format: cell-based; conditions: Staphylococcus aureus; 24 h at 37 °C
Procedure: as §3, §4

[8] = test system: NHDF (normal human dermal fibroblasts); test: WST-1 proliferation assay, NHDF; format: cell-based; conditions: Homo sapiens, NHDF, normal cells, 72 h exposure
Procedure: as §1, §2

[9] = test system: vancomycin-resistant E. faecalis VRE 725B; test: MIC, microtitration broth method, VRE3; format: cell-based; conditions: Enterococcus faecalis, 24 h at 37 °C
Procedure: as §3, §4

[10] = test system: Staphylococcus aureus ATCC 29213; test: MIC, microtitration broth method, SA; format: cell-based; conditions: ATCC29213, 24 h at 37 °C
Procedure: as §3, §4

[11] = test system: methicillin-resistant S. aureus 63718; test: MBC, agar aliquot subculture method, MRSA3; format: cell-based; conditions: Staphylococcus aureus
Procedure: (§5) For the above-mentioned strains/isolates, the agar aliquot subculture method was used as a test for bactericidal agents. After the MIC value determination, the inoculum was transferred to CaMH (Oxoid) for staphylococci, BHI (Oxoid) for enterococci, and Middlebrook 7H9 (Difco) for mycobacteria medium using a multipoint inoculator. As indicated above, the plates were incubated on a thermostat at 37 °C for the appropriate time for each micro-organism. The lowest concentration of test compound at which ≤5 colonies were obtained was then evaluated as MBC, corresponding to a 99.9% decrease in CFU relative to the original inoculum.

[12] = test system: Mycobacterium smegmatis ATCC 700084; test: MBC, agar aliquot subculture method, MS; format: cell-based; conditions: Mycolicibacterium smegmatis, ATCC700084
Procedure: as §5

[13] = test system: vancomycin-resistant E. faecalis VRE 342B; test: MIC, microtitration broth method, VRE1; format: cell-based; conditions: Enterococcus faecalis, 24 h at 37 °C
Procedure: as §3, §4

[14] = test system: vancomycin-resistant E. faecalis VRE 368; test: MIC, microtitration broth method, VRE2; format: cell-based; conditions: Enterococcus faecalis, 24 h at 37 °C
Procedure: as §3, §4

[15] = test system: T-47D (human breast cancer); test: WST-1 proliferation assay, T47D; format: cell-based; conditions: Homo sapiens, T47D, 72 h exposure
Procedure: as §1, §2

[16] = test system: Enterococcus faecalis ATCC 29213; test: MIC, microtitration broth method, EF; format: cell-based; conditions: ATCC29213, 24 h at 37 °C
[17] = test system: Mycobacterium marinum CAMP 5644; test: MBC, agar aliquot subculture method, MM; format: cell-based; conditions: CAMP5644
Procedure: as §5

[18] = test system: Staphylococcus aureus ATCC 29213; test: MBC, agar aliquot subculture method, SA; format: cell-based; conditions: ATCC29213
Procedure: as §5

[19] = test system: methicillin-resistant S. aureus SA 3202; test: MBC, agar aliquot subculture method, MRSA1; format: cell-based; conditions: Staphylococcus aureus
Procedure: as §5

[20] = test system: methicillin-resistant S. aureus SA 630; test: MBC, agar aliquot subculture method, MRSA2; format: cell-based; conditions: Staphylococcus aureus
Procedure: as §5

[21] = test system: Mycobacterium smegmatis ATCC 700084; conditions: 3 days

SMILES	IC50 [1]	MIC [2]	MIC [3]	MIC [4]	MIC [5]	IC50 [6]	MIC [7]	IC50 [8]	MIC [9]	MIC [10]	MBC [11]	MBC [12]	MIC [13]	MIC [14]	IC50 [15]	MIC [16]	MBC [17]	MBC [18]	MBC [19]	MBC [20]	further results
C=CCn1cc(COc2ccc3c(c2)Nc2c(c[n+](C)c4ccccc24)S3)nn1 [2b, 5-Methyl-10-(1-allyl-1H-1,2,3-triazol-4-yl)methoxy-12H-quino [3,4-b][1,4]benzothiazinium chloride]	2.7 ± 0.4 µM	65.5 µM	65.5 µM	262 µM	> 524 µM	1.8 ± 0.2 µM	> 524 µM	> 100 µM	524 µM	524 µM	262 µM	65.5 µM	> 524 µM	> 524 µM	5.3 ± 0.6 µM	> 524 µM	65.5 µM				
C[n+]1cc2c(c3ccccc31)Nc1ccc(OCc3cn(Cc4ccccc4)nn3)cc1S2 [2d, 5-Methyl-9-(1-benzyl-1H-1,2,3-triazol-4-yl)methoxy-12H-quino [3,4-b][1,4]benzothiazinium chloride]	2.5 ± 0.1 µM	32.7 µM	32.7 µM	65.5 µM	131 µM	6.3 ± 0.4 µM	131 µM	> 100 µM	> 524 µM	131 µM	65.5 µM	32.7 µM	> 524 µM	> 524 µM	8.6 ± 0.7 µM	> 524 µM	32.7 µM	65.5 µM	131 µM	131 µM	
C[n+]1cc2c(c3ccccc31)Nc1cc(OCc3cn(Cc4ccccc4)nn3)ccc1S2 [2e, 5-Methyl-10-(1-benzyl-1H-1,2,3-triazol-4-yl)methoxy-12H-quino [3,4-b][1,4]benzothiazinium chloride]	3.4 ± 0.3 µM	32.7 µM	32.7 µM	16.3 µM	65.5 µM	8.4 ± 0.6 µM	65.5 µM	56.6 ± 4.2 µM	524 µM	32.8 µM	16.3 µM	32.7 µM	524 µM	524 µM	12.5 ± 0.8 µM	524 µM	32.7 µM	65.5 µM	65.5 µM	65.5 µM	
C[n+]1cc2c(c3ccccc31)Nc1ccc(OCc3cn(Cc4ccc([N+](=O)[O-])cc4)nn3)cc1S2 [2g, 5-Methyl-9-[1-(4-nitrobenzyl)-1H-1,2,3-triazol-4-yl]methoxy-12H-quino [3,4-b][1,4]benzothiazinium chloride]	8.4 ± 0.7 µM	32.7 µM	65.5 µM	65.5 µM	262 µM	4.5 ± 0.3 µM	262 µM	27.6 ± 0.6 µM	131 µM	262 µM	65.5 µM	65.5 µM	524 µM	262 µM	11.8 ± 0.5 µM	262 µM	131 µM	262 µM	262 µM		
C[n+]1cc2c(c3ccccc31)Nc1cc(OCc3cn(-c4ccc(Cl)cc4)nn3)ccc1S2 [2n, 5-Methyl-10-(1-(4-chlorophenyl)-1H-1,2,3-triazol-4-yl)methoxy-12H-quino [3,4-b][1,4]benzothiazinium chloride]	42.9 ± 1.8 µM	16.3 µM	32.7 µM	262 µM	> 524 µM	14.3 ± 0.8 µM	> 524 µM	> 100 µM	> 524 µM	> 524 µM	262 µM	16.3 µM	> 524 µM	> 524 µM	15.4 ± 1.1 µM	> 524 µM	32.7 µM				Conc.: lowest multiple of MBC with at least 70% inhibition of respiratory activity ([21]; MTT): 1× MIC (1× MBC); Conc.: lowest multiple of MIC with at least 70% inhibition of respiratory activity ([21]; MTT): 1× MIC (1× MBC); viability of M. smegmatis at MIC value ([21]; Mycobacterium smegmatis): less than 70%; M. smegmatis Respiration Inhibition ([21]; at the concentration (lowest multiple of MIC with at least 70% inhibition)): 85.9%
